Where “and” joins values, the source holds several entries; their conditions need not be identical. Equal entries are not always repeated. Entries after “also recorded” stand apart in the source; their conditions may differ.

Assay [1] relates to PKC binding to recombinant RACK1. Put plainly: Overlay / overlay-extraction assay: inhibition of PKC binding to recombinant RACK1 by peptides. The arrangement: species or system rat. The procedure: The variation in the overlay protocol consisted of incubating the putative binding peptides with a mixture of PKC isozymes for 15 minutes at room temperature before the mixture was used to contact the nitrocellulose strips containing immobilized RACK1.
Nitrocellulose strips containing immobilized RACK1, that had been contacted with a solution containing a mixture of PKC isozymes, were washed and the area corresponding to the 36 kDa (RACK1-containing) band was cut out. The pieces (containing PKC/RACK1 complexes) were incubated with sample buffer for 10 minutes at 80° C. The sample buffer and the nitrocellulose pieces were then placed in wells in the PAGE gel and subjected to SDS-PAGE to elute the bound proteins. The gel was blotted onto nitrocellulose and a Western blot analysis was carried out using the mixture of antibodies (specific for PKC α, β, γ, δ, ε and ζ isozymes) described in Example 1 part B. Bound antibodies were detected by ^125I-protein A.
Peptides derived from or homologous to WD-40 repeats of RACK1 were tested for their ability to inhibit PKC binding to recombinant RACK1. Binding of PKC to RACK1 was carried out using a variation of the overlay procedure described in Example 3 part B. In the experimental samples, peptides were incubated with a solution containing a mixture of rat brain PKC isozymes (˜10 nM each) for 15 minutes at room temperature.
Following completion of the modified overlay protocol, the samples were subjected to the overlay-extraction protocol detailed in part B, above.
The results in FIG. 3 show the binding of PKC to RACK1, carried out without (lane 1) or with (lanes 2-4) a preincubation of peptides with PKC. […] Peptide I caused an 81±6% inhibition of PKC binding to recombinant RACK1 as compared with binding in the absence of added peptide (n=3). Lanes 3 and 4 show PKC binding following a preincubation with 10 μM peptide rIII (SEQ ID NO:4) and 10 μM peptide rVI (SEQ ID NO:7), respectively. […] The results shown are representative of three independent experiments.

Assay [2] addresses T1, βPKC (Rattus norvegicus, UniProt P68403).
T1 construct: All the solutions contained 5 nM rat brain PKC; from tissue; host or cells: rat brain
Put plainly: PKC overlay of peptides immobilized on nitrocellulose (slot blot). It is filed as binding. The settings on record: for binding of activated PKC to immobilized peptide: 5 nM rat brain PKC with PS; for binding of activated PKC to immobilized peptide / lowest peptide amount at which activated PKC bound: DG and calcium; for binding of unactivated PKC to immobilized peptide: 5 nM rat brain PKC without PS, DG, calcium; for lowest peptide amount at which activated PKC bound: PKC with PS, 0.5-10.0 μmole peptide applied. The procedure:
The binding of βPKC to peptide I (SEQ ID NO:1), peptide rVI (SEQ ID NO:7) and control peptide (SEQ ID NO:9) was assessed using a PKC overlay assay similar to that described in Example 3. Increasing amounts of peptides (0.5 μmole, 1.0 μmole, 5.0 μmole and 10.0 μmole) suspended in 20 mM NaCl were applied individually onto nitrocellulose using a slot-blot apparatus (Schleicher and Schuell, Keene, N.H.). The nitrocellulose membrane was washed three times, 15 minutes per wash, in peptide overlay buffer and incubated for two hours in peptide overlay block buffer. The membrane was cut into sections and the sections were transferred to different PKC-containing solutions and incubated for 30 minutes at room temperature. All the solutions contained 5 nM rat brain PKC in peptide overlay buffer. Some solutions additionally contained PS, DG, and calcium. The membranes were then washed three times, 15 minutes per wash, in peptide overlay buffer and incubated in peptide overlay block buffer containing anti-βPKC monoclonal antibodies (1:1000 dilution; Seikagaku Kogyo, Tokyo, Japan). After a 16 hr incubation at room temperature, the filters were washed three times, 15 minutes per wash, in peptide overlay buffer.
Binding of PKC was determined using chemiluminescence as described in Example 3, part C. Quantitation of PKC binding was carried out using a “MICRO SCAN” 1000 gel analyzer (Galai Inc., Yokneam, Israel).

The test system of assay [3] is Xenopus oocytes. Put plainly: PKC-mediated Xenopus oocyte maturation (germinal vesicle breakdown, GVBD) after peptide microinjection. The settings on record: for plateau % GVBD (fraction of oocytes reaching maturation) following insulin exposure: peptide 50 μM, 50 nl microinjected, 20 h time course. It is filed as cell-based. As for the experimental part: Exposure to insulin induces maturation in Xenopus oocytes via a PKC-dependent pathway (Smith, et al., 1992). The maturation response may be quantified by monitoring the appearance of a white spot in the animal hemisphere of the oocyte, indicating germinal vesicle breakdown (GVBD) and maturation. To assess the effects of RACK1 WD-40-derived peptides on insulin-induced PKC-mediated maturation, 50 nl of a 20 mM NaCl solution containing the indicated peptides [peptide I (SEQ ID NO:1; ●), peptide rVI (SEQ ID NO:7; ▪), or injection solution (□)] (peptides at 50 μM) were microinjected into Xenopus oocytes. […] One hour following the peptide injections, the oocytes were exposed to a solution containing insulin (8.25 μg/ml) for 2 minutes (t=0). 10-15 oocytes were used for each sample.
The data, representative of three independent experiments, are expressed as the percent of oocytes with GVBD following insulin exposure and are plotted as a function of time in FIG. 5.

Assay [4] deals with PKC. Put plainly: PKC autophosphorylation. The format is biochemical, rat. The settings on record: peptide 10 μM; absence of PKC activators. As for the experimental part: Rat brain PKC (˜10 nM) was incubated with mild agitation in a final volume of 250 μl of overlay buffer, as in Example 1 either with anti-βPKC pseudosubstrate antibodies (1:10 dilution, Life Technologies, Gaithersburg, Md.) or with the indicated peptide (10 μM). Where indicated, PS (50 μg/ml), DG (0.8 μg/ml) and CaCl2 (1 mM) were also added. The amount of autophosphorylation was determined after 2 hours for the reaction with the anti-pseudosubstrate antibodies, or after 15 minutes for the other samples. 50 μl of a buffer comprised of 20 mM Tris-HCl (pH 7.5), 20 mM MgCl2, 20 μM ATP and 5 μci/ml [γ-^32P]ATP. The mixture was incubated for 15 minutes at room temperature and the reaction was stopped by adding 60 μl sample buffer (see Example 9). The samples were then boiled for 10 minutes, loaded onto a 10% SDS-PAGE mini gel and electrophoresed. The gel was fixed with 50% methanol and 10% acetic acid for 1 hour, and the autophosphorylation of PKC was determined by autoradiography.
The results in FIG. 8 show PKC autophosphorylation in the presence of DG, PS, and calcium (lane 1), in the presence of EGTA (lane 2), in the presence of anti-βPKC pseudosubstrate antibodies (diluted 1:10 in 20 mM Tris-HCl; lane 3), in the presence of peptide rVI (SEQ ID NO:7; 10 μM; lane 4), in the presence of peptide I (SEQ ID NO:1; 10 μM; lane 5), or in the presence of control peptide (SEQ ID NO:9; 10 μM; lane 6).

In assay [5] the test system is Xenopus oocytes. Put plainly: PKC-mediated Xenopus oocyte maturation (germinal vesicle breakdown, GVBD) after peptide microinjection. It is filed as cell-based. The settings on record: for dose dependence of effect on GVBD: between 5 μm-500 μM.
[6] abbreviates: peptide 50 μM microinjected, insulin 8.25 μg/ml.
Setting [7] is: peptide 50 μM alone, no insulin.

T1 sequence (P68403 whole entry): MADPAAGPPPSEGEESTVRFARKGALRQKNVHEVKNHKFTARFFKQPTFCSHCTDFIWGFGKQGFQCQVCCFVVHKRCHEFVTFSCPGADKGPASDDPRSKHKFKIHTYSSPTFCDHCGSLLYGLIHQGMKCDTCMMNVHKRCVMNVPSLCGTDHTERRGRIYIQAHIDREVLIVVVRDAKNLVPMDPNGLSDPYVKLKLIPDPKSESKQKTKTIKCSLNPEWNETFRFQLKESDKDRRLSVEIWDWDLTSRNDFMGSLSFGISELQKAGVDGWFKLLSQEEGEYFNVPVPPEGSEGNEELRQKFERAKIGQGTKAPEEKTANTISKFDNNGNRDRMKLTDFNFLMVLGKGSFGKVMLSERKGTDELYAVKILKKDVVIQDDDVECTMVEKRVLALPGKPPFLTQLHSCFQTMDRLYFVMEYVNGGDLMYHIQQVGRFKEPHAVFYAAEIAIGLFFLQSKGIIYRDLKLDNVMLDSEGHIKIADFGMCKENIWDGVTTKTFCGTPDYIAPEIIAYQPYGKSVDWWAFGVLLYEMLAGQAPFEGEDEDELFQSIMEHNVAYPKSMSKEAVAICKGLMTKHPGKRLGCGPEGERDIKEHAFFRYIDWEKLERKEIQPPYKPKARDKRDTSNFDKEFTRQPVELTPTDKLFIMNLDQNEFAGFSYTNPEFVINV

“peptide I: 15-residue peptide homologous to a sequence in the sixth WD-40 repeat of RACK1; PKC antagonist (KGDYEKILVALCGGN)”: the “inhibition of PKC binding to recombinant RACK1 as compared with binding in the absence of added peptide” value in assay [1] (10 μM peptide preincubated with PKC isozyme mixture 15 min, n=3) is given as 81±6%. For the same substance, in assay [2], the “binding of activated PKC to immobilized peptide” value is recorded as “bound”, the “binding of unactivated PKC to immobilized peptide” value is recorded as “did not bind” and the “lowest peptide amount at which activated PKC bound” value is 5 µmol. Further, the “plateau % GVBD (fraction of oocytes reaching maturation) following insulin exposure” value in assay [3] (insulin 8.25 μg/ml) is reported as 45-50%. The “induction of PKC autophosphorylation (in words)” value in assay [4] was “No autophosphorylation; also recorded: Neither peptide I nor control peptide induced PKC autophosphorylation”. In addition, the “dose dependence of effect on GVBD” value in assay [5] was “dose-dependent”.
For the substance “peptide rVI: eight amino acid peptide identical to a segment of RACK1 WD-40 repeat VI (DIINALCF)”, the “inhibition of PKC binding to RACK1 (in words)” value in assay [1] (10 μM peptide preincubated with PKC) is “inhibit the binding of PKC to RACK1”. In addition, in assay [2], the “binding of activated PKC to immobilized peptide” value is given as “bound”, the “binding of unactivated PKC to immobilized peptide” value is “did bind” and the “lowest peptide amount at which activated PKC bound” value was determined as 5 µmol. In assay [3] (setting [6]), the “delay to onset of maturation after exposure to insulin” value lay within 3 to 4 h and the “time to reach GVBD plateau after insulin exposure” value is not above 5 h. Besides, the “plateau % GVBD (fraction of oocytes reaching maturation) following insulin exposure” value in assay [3] (insulin 8.25 μg/ml) is ~100% and 95-100%. In addition, the “effect on insulin-induced oocyte maturation (in words)” value in assay [3] (peptide microinjected, insulin) is reported as “potentiates the effects of insulin on oocyte maturation”. Also, the “PKC autophosphorylation relative to that with optimal PS, DG and calcium” value in assay [4] was “over 80%”. Also, the “dose dependence of effect on GVBD” value in assay [5] is reported as “dose-dependent”. Moreover, in assay [5] (setting [7]), the “delay to initiation of maturation in the absence of insulin” value was in the range of 6 to 7 h, the “induction of GVBD in the absence of insulin” value is “induced oocyte maturation; also recorded: induced GVBD” and the “plateau % GVBD in the absence of insulin” value is “about 50%”.
